The target of assay [1] is T1, D(2) dopamine receptor (Bos taurus, UniProt P20288). As to the kind of experiment: High binding affinity for dopamine D-2 receptor from bovine anterior pituitary membrane, using radioligand [3H]spiroperidol.
The target in assay [2] is T1, D(2) dopamine receptor. As to the kind of experiment: Low binding affinity for dopamine D-2 receptor from bovine anterior pituitary membrane, using radioligand [3H]spiroperidol.
Assay [3] addresses D(2) dopamine receptor (Bos taurus) (UniProt P20288). Briefly: Low percent binding affinity for different states of the Dopamine D-2 receptor in bovine anterior pituitary membranes, using radioligand [3H]spiroperidol. In kind it is cell membranes.
For assay [4] the target is unchanged. As to the kind of experiment: High percent binding affinity for different states of the Dopamine receptor D2 in bovine anterior pituitary membranes, using radioligand [3H]spiroperidol.
The target of assay [5] is T1, D(2) dopamine receptor. Briefly: High binding affinity for dopamine D-2 receptor from bovine anterior pituitary membrane, using radioligand [3H]spiroperidol in bovine anterior pituitary membranes. It counts as cell membranes.
Assay [6] addresses T1, D(2) dopamine receptor. As to the kind of experiment: Low binding affinity for dopamine D-2 receptor from bovine anterior pituitary membrane, using radioligand [3H]spiroperidol in bovine anterior pituitary membranes. In kind it is cell membranes.
Assay [7] deals with T1, D(2) dopamine receptor. As to the kind of experiment: Low binding affinity for dopamine receptor D2 from bovine anterior pituitary membrane, using radioligand [3H]spiroperidol in bovine anterior pituitary membranes. In kind it is cell membranes.
In assay [8] the target is D(2) dopamine receptor (Bos taurus) (UniProt P20288). Briefly: Low percent binding affinity for different states of the dopamine receptor D2 in bovine anterior pituitary membranes, using radioligand [3H]spiroperidol. It counts as cell membranes.
Chain of D(2) dopamine receptor (Bos taurus) (P20288 whole entry): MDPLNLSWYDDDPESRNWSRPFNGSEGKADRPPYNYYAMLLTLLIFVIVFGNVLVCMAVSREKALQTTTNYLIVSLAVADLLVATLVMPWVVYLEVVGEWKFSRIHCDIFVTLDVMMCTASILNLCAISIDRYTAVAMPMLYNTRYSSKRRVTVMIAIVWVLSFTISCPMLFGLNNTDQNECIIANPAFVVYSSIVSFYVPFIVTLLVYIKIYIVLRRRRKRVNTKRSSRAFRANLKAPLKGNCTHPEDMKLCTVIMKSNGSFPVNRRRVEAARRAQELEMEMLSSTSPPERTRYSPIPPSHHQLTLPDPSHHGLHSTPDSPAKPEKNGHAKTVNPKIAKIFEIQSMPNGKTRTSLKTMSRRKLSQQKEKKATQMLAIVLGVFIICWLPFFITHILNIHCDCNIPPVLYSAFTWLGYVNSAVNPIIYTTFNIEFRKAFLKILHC

T1 sequence (P20288 whole entry): as above

Take `CCCN1C[C@H](C)C[C@@H]2c3cc(O)ccc3CC[C@H]21`: the figures for the Ki on D(2) dopamine receptor [1] and on D(2) dopamine receptor [2] were 0.008 µM and 1.94 µM, respectively. The compound also showed a Low in assay [3] of 87%. This compound also came in with a Percent of receptors in high-affinity state in assay [4] of 13%.

As for `CCCN1C[C@H](CSC)C[C@@H]2c3cc(O)ccc3CC[C@H]21`, the Ki was determined as 0.014 µM on D(2) dopamine receptor [5] and 1.21 µM at D(2) dopamine receptor [6]. This compound also displayed a Low in assay [3] of 79%. In assay [4], the Percent of receptors in high-affinity state worked out at 21%.

Take `CCCN1C[C@H](CC#N)C[C@@H]2c3cc(O)c(O)cc3CC[C@H]21`: the Ki was 0.006 µM at D(2) dopamine receptor [1] and 0.36 µM at D(2) dopamine receptor [2]. The compound also had a Low in assay [3] of 56%. In addition, the Percent of receptors in high-affinity state in assay [4] was 44%.

In assay [3], `CCCN1C[C@H](C)C[C@@H]2c3cccc(O)c3CC[C@H]21` yielded a Low of 100%.

As for `CCCN1C[C@H](CC#N)C[C@@H]2c3cc(O)ccc3CC[C@H]21`, the Ki on D(2) dopamine receptor [5] was 0.004 µM; on D(2) dopamine receptor [6], 0.28 µM. The compound further came in with a Low in assay [3] of 70%. Further, the Percent of receptors in high-affinity state in assay [4] was 30%.

Take `CCCN1C[C@H](CSC)C[C@@H]2c3cccc(O)c3CC[C@H]21`: the Ki at D(2) dopamine receptor [7] came out at 0.25 µM. In addition, in assay [8], the Low came out at 100%.

For `NCCc1ccc(O)c(O)c1`, the Low in assay [3] was determined as 69%. In assay [4], the High came out at 31%.

For `CCCN1C[C@H](CC#N)C[C@@H]2c3cccc(O)c3CC[C@H]21`, at D(2) dopamine receptor [6], the Ki is 5.39 µM. The compound also yielded a Low in assay [3] of 100%.

Compound `CCCN1C[C@H](CSC)C[C@@H]2c3ccc(O)c(O)c3CC[C@H]21` displayed a Ki at D(2) dopamine receptor [2] of 1.73 µM. The compound further yielded a Low in assay [3] of 100%.

As to `CCCN1C[C@H](CSC)C[C@@H]2c3cc(O)c(O)cc3CC[C@H]21`, in assay [3], the Low amounted to 67%. Besides, the Percent of receptors in high-affinity state in assay [4] worked out at 33%.

Take `CCCN1C[C@H](CC#N)C[C@@H]2c3ccc(O)c(O)c3CC[C@H]21`: the Ki at D(2) dopamine receptor [2] was found to be 1.46 µM. For the same compound, the Low in assay [3] came out at 100%.

Usually Ki stands for the equilibrium dissociation constant of an inhibitor or competing ligand from its target. A low value points to higher affinity.

These data come from ChEMBL document CHEMBL1124469, “Synthesis and dopaminergic activity of 2-substituted octahydrobenzo[f]quinolines” (J Med Chem, 1989).
